Each structure is given as a SMILES string. A value given as a limit tells only on which side of the number the result lay.

Assay [1] deals with Human glucagon receptors (Homo sapiens, UniProt P47871). Kind of assay: Glucagon receptor activation assay (CRE-luciferase reporter, CHO-K1). In general terms: Reporter assays use an easily measured gene product as a stand-in for the process of interest.
In assay [2] the target is Human GLP-1 receptors (Homo sapiens, UniProt P43220). Kind of assay: GLP-1 receptor activation assay (CRE-luciferase reporter, CHO-K1).
Sequence of Human GLP-1 receptors (P43220 24-463): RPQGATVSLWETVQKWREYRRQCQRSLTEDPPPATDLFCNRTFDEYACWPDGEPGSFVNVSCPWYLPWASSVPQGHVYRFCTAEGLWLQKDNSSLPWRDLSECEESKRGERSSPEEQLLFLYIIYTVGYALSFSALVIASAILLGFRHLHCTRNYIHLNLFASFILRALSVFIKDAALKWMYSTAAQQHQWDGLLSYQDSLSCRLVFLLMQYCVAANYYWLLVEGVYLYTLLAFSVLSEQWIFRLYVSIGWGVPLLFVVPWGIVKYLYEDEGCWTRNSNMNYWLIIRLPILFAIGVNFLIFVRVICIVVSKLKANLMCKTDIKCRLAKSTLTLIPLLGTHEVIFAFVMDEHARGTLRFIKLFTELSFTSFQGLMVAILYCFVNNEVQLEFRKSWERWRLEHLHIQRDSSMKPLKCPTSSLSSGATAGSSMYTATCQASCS

Sequence of Human glucagon receptors (P47871 26-477): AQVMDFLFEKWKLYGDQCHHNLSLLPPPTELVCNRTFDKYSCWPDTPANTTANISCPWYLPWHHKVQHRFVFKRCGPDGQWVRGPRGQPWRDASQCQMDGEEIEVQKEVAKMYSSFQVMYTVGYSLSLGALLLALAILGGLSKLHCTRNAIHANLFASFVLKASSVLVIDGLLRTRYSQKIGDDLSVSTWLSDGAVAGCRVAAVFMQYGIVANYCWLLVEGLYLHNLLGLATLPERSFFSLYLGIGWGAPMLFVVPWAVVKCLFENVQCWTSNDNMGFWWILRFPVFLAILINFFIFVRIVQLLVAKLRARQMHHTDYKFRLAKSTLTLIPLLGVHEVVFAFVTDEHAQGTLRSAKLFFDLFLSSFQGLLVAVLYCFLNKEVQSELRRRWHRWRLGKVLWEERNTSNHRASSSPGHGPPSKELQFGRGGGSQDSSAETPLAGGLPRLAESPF

In the case of `CCCCCCCCCCCCCCCCCC(=O)N[C@@H](CCC(=O)NCCOCCOCC(=O)NCCOCCOCC(=O)NCCOCCOCC(=O)NCCOCCOCC(=O)NCCCC[C@H](NC(=O)[C@H](CC(=O)O)NC(=O)[C@H](CO)NC(=O)[C@@H](NC(=O)[C@H](Cc1ccccc1)NC(=O)[C@@H](NC(=O)CNC(=O)[C@H](CCC(N)=O)NC(=O)C(C)(C)NC(=O)[C@@H](N)Cc1c[nH]cn1)[C@@H](C)O)[C@@H](C)O)C(=O)N[C@@H](CO)C(=O)N[C@@H](CCCCN)C(=O)N[C@@H](Cc1ccc(O)cc1)C(=O)N[C@@H](CC(C)C)C(=O)N[C@@H](CC(=O)O)C(=O)N[C@H]1CCC(=O)NCCCC[C@@H](C(=O)N[C@@H](CC(=O)O)C(=O)N[C@@H](Cc2ccccc2)C(=O)N[C@H](C(=O)N[C@@H](CCC(N)=O)C(=O)N[C@@H](Cc2c[nH]c3ccccc23)C(=O)N[C@@H](CC(C)C)C(=O)N[C@@H](CCSC)C(=O)N[C@@H](CC(N)=O)C(=O)N[C@H](C(=O)N[C@@H](CCCCN)C(N)=O)[C@@H](C)O)C(C)C)NC(=O)[C@H](C)NC(=O)[C@H](CCCNC(=N)N)NC(=O)[C@H](CCCNC(=N)N)NC1=O)C(=O)O` [Compound 24, H-HAibQGTFTSDZSKYLDERRAKDFVQWLMNTK-NH2], the values for the EC50 in assay [1] and in assay [2] were 0.01 to 0.1 nM and below 0.01 nM, respectively.
For `CCCCCCCCCCCCCCCCCC(=O)N[C@@H](CCC(=O)NCCOCCOCC(=O)NCCOCCOCC(=O)NCCOCCOCC(=O)NCCOCCOCC(=O)NCCCC[C@H](NC(=O)[C@H](CC(=O)O)NC(=O)[C@H](CO)NC(=O)[C@@H](NC(=O)[C@H](Cc1ccccc1)NC(=O)[C@@H](NC(=O)CNC(=O)[C@H](CCC(N)=O)NC(=O)C(C)(C)NC(=O)[C@@H](N)Cc1c[nH]cn1)[C@@H](C)O)[C@@H](C)O)C(=O)N[C@@H](CO)C(=O)N[C@@H](CCCCN)C(=O)N[C@@H](Cc1ccc(O)cc1)C(=O)N[C@@H](CC(C)C)C(=O)N[C@@H](CC(=O)O)C(=O)N[C@H]1CCC(=O)NCCCC[C@@H](C(=O)N[C@@H](CC(=O)O)C(=O)N[C@@H](Cc2ccccc2)C(=O)N[C@H](C(=O)N[C@@H](CCC(N)=O)C(=O)N[C@@H](Cc2c[nH]c3ccccc23)C(=O)N[C@@H](CC(C)C)C(=O)N[C@@H](CCSC)C(=O)N[C@@H](CC(N)=O)C(=O)N[C@H](C(=O)N[C@@H](CCCCN)C(=O)O)[C@@H](C)O)C(C)C)NC(=O)[C@H](C)NC(=O)[C@H](CCCNC(=N)N)NC(=O)[C@H](CCCNC(=N)N)NC1=O)C(=O)O` [Compound 25, H-HAibQGTFTSDZSKYLDERRAKDFVQWLMNTK-OH] the same measures were below 0.01 nM and below 0.01 nM.
Consider `CCCCCCCCCCCCCCCCCC(=O)N[C@@H](CCC(=O)NCCOCCOCC(=O)NCCOCCOCC(=O)NCCCC[C@H](NC(=O)[C@H](CC(=O)O)NC(=O)[C@H](CO)NC(=O)[C@@H](NC(=O)[C@H](Cc1ccccc1)NC(=O)[C@@H](NC(=O)CNC(=O)[C@H](CCC(N)=O)NC(=O)C(C)(C)NC(=O)[C@@H](N)Cc1c[nH]cn1)[C@@H](C)O)[C@@H](C)O)C(=O)N[C@@H](CO)C(=O)N[C@@H](CCCCN)C(=O)N[C@@H](Cc1ccc(O)cc1)C(=O)N[C@@H](CC(C)C)C(=O)N[C@@H](CC(=O)O)C(=O)N[C@H]1CC(=O)NCCCC[C@@H](C(=O)N[C@@H](CC(=O)O)C(=O)N[C@@H](Cc2ccccc2)C(=O)N[C@H](C(=O)N[C@@H](CCC(N)=O)C(=O)N[C@@H](Cc2c[nH]c3ccccc23)C(=O)N[C@@H](CC(C)C)C(=O)N[C@@H](CCSC)C(=O)N[C@@H](CC(N)=O)C(=O)N[C@H](C(=O)N[C@@H](CCCCN)C(=O)O)[C@@H](C)O)C(C)C)NC(=O)[C@H](C)NC(=O)[C@H](CCCNC(=N)N)NC(=O)[C@H](CCCNC(=N)N)NC1=O)C(=O)O` [Compound 26, H-HAibQGTFTSDZSKYLDDRRAKDFVQWLMNTK-OH], for which the EC50 in assay [1] and in assay [2] was below 0.01 nM in each case.
Take `CCCCCCCCCCCCCCCCCC(=O)N[C@@H](CCC(=O)NCCOCCOCC(=O)NCCOCCOCC(=O)NCCCC[C@H](NC(=O)[C@H](CC(=O)O)NC(=O)[C@H](CO)NC(=O)[C@@H](NC(=O)[C@H](Cc1ccccc1)NC(=O)[C@@H](NC(=O)CNC(=O)[C@H](CCC(N)=O)NC(=O)C(C)(C)NC(=O)[C@@H](N)Cc1c[nH]cn1)[C@@H](C)O)[C@@H](C)O)C(=O)N[C@@H](CO)C(=O)N[C@@H](CCCCN)C(=O)N[C@@H](Cc1ccc(O)cc1)C(=O)N[C@@H](CC(C)C)C(=O)N[C@@H](CC(=O)O)C(=O)N[C@H]1CCCCNC(=O)C[C@@H](C(=O)N[C@@H](CC(=O)O)C(=O)N[C@@H](Cc2ccccc2)C(=O)N[C@H](C(=O)N[C@@H](CCC(N)=O)C(=O)N[C@@H](Cc2c[nH]c3ccccc23)C(=O)N[C@@H](CC(C)C)C(=O)N[C@@H](CCSC)C(=O)N[C@@H](CC(N)=O)C(=O)N[C@H](C(=O)N[C@@H](CCCCN)C(=O)O)[C@@H](C)O)C(C)C)NC(=O)[C@H](C)NC(=O)[C@H](CCCNC(=N)N)NC(=O)[C@H](CCCNC(=N)N)NC1=O)C(=O)O` [Compound 27, H-HAibQGTFTSDZSKYLDKRRADDFVQWLMNTK-OH]: the 50% effective concentration (EC50) in assay [1] and in assay [2] was below 0.01 nM throughout.
Regarding `CCCCCCCCCCCCCCCCCC(=O)N[C@@H](CCC(=O)NCCOCCOCC(=O)NCCOCCOCC(=O)NCCCC[C@H](NC(=O)[C@H](CC(=O)O)NC(=O)[C@H](CO)NC(=O)[C@@H](NC(=O)[C@H](Cc1ccccc1)NC(=O)[C@@H](NC(=O)CNC(=O)[C@H](CCC(N)=O)NC(=O)C(C)(C)NC(=O)[C@@H](N)Cc1c[nH]cn1)[C@@H](C)O)[C@@H](C)O)C(=O)N[C@@H](CO)C(=O)N[C@@H](CCCCN)C(=O)N[C@@H](Cc1ccc(O)cc1)C(=O)N[C@@H](CC(C)C)C(=O)N[C@@H](CC(=O)O)C(=O)N[C@H]1CSSC[C@@H](C(=O)N[C@@H](CC(=O)O)C(=O)N[C@@H](Cc2ccccc2)C(=O)N[C@H](C(=O)N[C@@H](CCC(N)=O)C(=O)N[C@@H](Cc2c[nH]c3ccccc23)C(=O)N[C@@H](CC(C)C)C(=O)N[C@@H](CCSC)C(=O)N[C@@H](CC(N)=O)C(=O)N[C@H](C(=O)N[C@@H](CCCCN)C(=O)O)[C@@H](C)O)C(C)C)NC(=O)[C@H](C)NC(=O)[C@H](CCCNC(=N)N)NC(=O)[C@H](CCCNC(=N)N)NC1=O)C(=O)O` [Compound 28, H-HAibQGTFTSDZSKYLDCRRACDFVQWLMNTK-OH], the concentration for a half-maximal effect (EC50) in assay [1] and in assay [2] was 0.1 to 1 nM each time.
For the compound `CCCCCCCCCCCCCCCCCC(=O)N[C@@H](CCC(=O)NCCOCCOCC(=O)NCCOCCOCC(=O)NCCCC[C@H](NC(=O)[C@H](CC(=O)O)NC(=O)[C@H](CO)NC(=O)[C@@H](NC(=O)[C@H](Cc1ccccc1)NC(=O)[C@@H](NC(=O)CNC(=O)[C@H](CCC(N)=O)NC(=O)C(C)(C)NC(=O)[C@@H](N)Cc1c[nH]cn1)[C@@H](C)O)[C@@H](C)O)C(=O)N[C@@H](CO)C(=O)N[C@@H](CCCCN)C(=O)N[C@@H](Cc1ccc(O)cc1)C(=O)N[C@@H](CC(C)C)C(=O)N[C@@H](CC(=O)O)C(=O)N[C@H]1CCC(=O)NCCNC(=O)CC[C@@H](C(=O)N[C@@H](CC(=O)O)C(=O)N[C@@H](Cc2ccccc2)C(=O)N[C@H](C(=O)N[C@@H](CCC(N)=O)C(=O)N[C@@H](Cc2c[nH]c3ccccc23)C(=O)N[C@@H](CC(C)C)C(=O)N[C@@H](CCSC)C(=O)N[C@@H](CC(N)=O)C(=O)N[C@H](C(=O)N[C@@H](CCCCN)C(=O)O)[C@@H](C)O)C(C)C)NC(=O)[C@H](C)NC(=O)[C@H](CCCNC(=N)N)NC(=O)[C@H](CCCNC(=N)N)NC1=O)C(=O)O` [Compound 30, H-HAibQGTFTSDZSKYLDERRAEDFVQWLMNTK-OH], the concentration for a half-maximal effect (EC50) in assay [1] and in assay [2] was below 0.01 nM throughout.
As for `CCCCCCCCCCCCCCCCCC(=O)N[C@@H](CCC(=O)NCCOCCOCC(=O)NCCOCCOCC(=O)NCCCC[C@H](NC(=O)[C@H](CC(=O)O)NC(=O)[C@H](CO)NC(=O)[C@@H](NC(=O)[C@H](Cc1ccccc1)NC(=O)[C@@H](NC(=O)CNC(=O)[C@H](CCC(N)=O)NC(=O)C(C)(C)NC(=O)[C@@H](N)Cc1c[nH]cn1)[C@@H](C)O)[C@@H](C)O)C(=O)N[C@@H](CO)C(=O)N[C@@H](CCCCN)C(=O)N[C@@H](Cc1ccc(O)cc1)C(=O)N[C@@H](CC(C)C)C(=O)N[C@@H](CC(=O)O)C(=O)N[C@H]1CCCCNC(=O)c2ccc(cc2)C(=O)NCCCC[C@@H](C(=O)N[C@@H](CC(=O)O)C(=O)N[C@@H](Cc2ccccc2)C(=O)N[C@H](C(=O)N[C@@H](CCC(N)=O)C(=O)N[C@@H](Cc2c[nH]c3ccccc23)C(=O)N[C@@H](CC(C)C)C(=O)N[C@@H](CCSC)C(=O)N[C@@H](CC(N)=O)C(=O)N[C@H](C(=O)N[C@@H](CCCCN)C(=O)O)[C@@H](C)O)C(C)C)NC(=O)[C@H](C)NC(=O)[C@H](CCCNC(=N)N)NC(=O)[C@H](CCCNC(=N)N)NC1=O)C(=O)O` [Compound 31, H-HAibQGTFTSDZSKYLDKRRAKDFVQWLMNTK-OH], the EC50 in assay [1] and in assay [2] was below 0.01 nM in each case.
Regarding `CCCCCCCCCCCCCCCCCC(=O)N[C@@H](CCC(=O)NCCOCCOCC(=O)NCCOCCOCC(=O)NCCCC[C@H](NC(=O)[C@H](CC(=O)O)NC(=O)[C@H](CO)NC(=O)[C@@H](NC(=O)[C@H](Cc1ccccc1)NC(=O)[C@@H](NC(=O)CNC(=O)[C@H](CCC(N)=O)NC(=O)C(C)(C)NC(=O)[C@@H](N)Cc1c[nH]cn1)[C@@H](C)O)[C@@H](C)O)C(=O)N[C@@H](CO)C(=O)N[C@@H](CCCCN)C(=O)N[C@@H](Cc1ccc(O)cc1)C(=O)N[C@@H](CC(C)C)C(=O)N[C@@H](CC(=O)O)C(=O)N[C@H]1CCCCNC(=O)C2CCN(CC2)C(=O)CC[C@@H](C(=O)N[C@@H](CC(=O)O)C(=O)N[C@@H](Cc2ccccc2)C(=O)N[C@H](C(=O)N[C@@H](CCC(N)=O)C(=O)N[C@@H](Cc2c[nH]c3ccccc23)C(=O)N[C@@H](CC(C)C)C(=O)N[C@@H](CCSC)C(=O)N[C@@H](CC(N)=O)C(=O)N[C@H](C(=O)N[C@@H](CCCCN)C(=O)O)[C@@H](C)O)C(C)C)NC(=O)[C@H](C)NC(=O)[C@H](CCCNC(=N)N)NC(=O)[C@H](CCCNC(=N)N)NC1=O)C(=O)O` [Compound 32, H-HA1 bQGTFTSDZSKYLDKRRAEDFVQWLMNTK-OH], the EC50 in assay [1] and in assay [2] was below 0.01 nM in each case.

One may read the EC50 as the concentration giving half of the maximal effect.

These data come from patent US11713344B2 (DONG-A ST CO., LTD., priority 2017, dated 2023).
